Test results: patent US8258134B2, “Pyridazinone glucokinase activators” (Hoffmann-La Roche Inc., priority 2008, dated 2012)

Target: T1, Recombinant human liver GK1 (GST-GK) (Homo sapiens, UniProt P35557)
T1 construct: made in house; host or cells: E. coli
T1 sequence (P35557 1-466 isoform P35557-2): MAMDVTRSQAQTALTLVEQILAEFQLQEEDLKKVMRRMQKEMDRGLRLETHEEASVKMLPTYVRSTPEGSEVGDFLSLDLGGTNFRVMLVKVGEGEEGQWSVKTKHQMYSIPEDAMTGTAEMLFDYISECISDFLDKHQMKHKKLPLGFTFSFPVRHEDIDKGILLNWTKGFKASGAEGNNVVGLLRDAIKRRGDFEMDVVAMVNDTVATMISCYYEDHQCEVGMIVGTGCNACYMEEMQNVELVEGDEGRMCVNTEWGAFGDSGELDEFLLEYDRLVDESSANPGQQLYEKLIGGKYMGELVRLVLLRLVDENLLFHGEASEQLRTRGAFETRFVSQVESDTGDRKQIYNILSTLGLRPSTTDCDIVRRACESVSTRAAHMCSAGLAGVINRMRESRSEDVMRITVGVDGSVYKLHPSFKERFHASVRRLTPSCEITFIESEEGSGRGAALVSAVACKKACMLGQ
Experiment: Glucokinase in vitro assay (G6PDH-coupled NADH generation, OD340)
Assay type: biochemical
Details: 5 mM D-glucose; for SC1.5 average (concentration of activator that produced a 50% increase in the activity of GK): 30° C., pH 7.1, 10% DMSO
How it was run: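 GST-tagged recombinant GK1 expressed in E. coli, run at 30° C, pH 7.1 Hepes with 5 mM D-glucose, 1 mM ATP and 1.8 mM NAD, G6PDH-coupled. Compounds were in 10% DMSO final, with a 10 min pre-incubation before enzyme addition. OD340/min rate measured; SC1.5 is the activator concentration giving a 50% increase in activity.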

| Compound | SC1.5 average (concentration of activator that produced a 50% increase in the activity of GK) [µM] | fold activation @ 30 uM (30 uM test compound) [fold] |
| --- | --- | --- |
| CC(C)(O)Cn1ccc(NC(=O)C(CC2CCCC2)n2ncc(Oc3ccc(C(F)(F)F)cc3)cc2=O)n1 (stereo not shown) [Example 5, 3-Cyclopentyl-N-[1-(2-hydroxy-2-methyl-propyl)-1H-pyrazol-3-yl]-2-[6-oxo-4-(4-trifluoromethyl-phenoxy)-6H-pyridazin-1-yl]-propionamide] | 2.267 | – |
| CC(C)(O)Cn1ccc(NC(=O)[C@@H](CC2CCCC2)n2ncc(Oc3ccccc3S(C)(=O)=O)cc2=O)n1 [Example 30B, (R)-3-Cyclopentyl-N-[1-(2-hydroxy-2-methyl-propyl)-1H-pyrazol-3-yl]-2-[4-(2-methanesulfonyl-phenoxy)-6-oxo-6H-pyridazin-1-yl]-propionamide] | > 30 | 1.16 |
| Cc1ncccc1Oc1cnn(C(CC2CCCC2)C(=O)Nc2ccn(CC(C)(C)O)n2)c(=O)c1 (stereo not shown) [Example 25, 3-Cyclopentyl-N-[1-(2-hydroxy-2-methyl-propyl)-1H-pyrazol-3-yl]-2-[4-(2-methyl-pyridin-3-yloxy)-6-oxo-6H-pyridazin-1-yl]-propionamide] | 1.773 | – |
| COc1ccc(Oc2cnn(C(CC3CCCC3)C(=O)Nc3ccn(CC(C)(C)O)n3)c(=O)c2)cc1 (stereo not shown) [Example 15, 3-Cyclopentyl-N-[1-(2-hydroxy-2-methyl-propyl)-1H-pyrazol-3-yl]-2-[4-(4-methoxy-phenoxy)-6-oxo-6H-pyridazin-1-yl]-propionamide] | 1.025 | – |
| COC(=O)c1cc(NC(=O)C(CC2CCCC2)n2ncc(Oc3ccccc3C(F)(F)F)cc2=O)nn1C (stereo not shown) [Example 16, 5-{3-Cyclopentyl-2-[6-oxo-4-(2-trifluoromethyl-phenoxy)-6H-pyridazin-1-yl]-propionylamino}-2-methyl-2H-pyrazole-3-carboxylic acid methyl ester] | 4.548 | – |
| CC(C)(O)Cn1ccc(NC(=O)[C@H](CC2CCCC2)n2ncc(Oc3ccccc3C(F)(F)F)cc2=O)n1 [Example 11A, (S)-3-Cyclopentyl-N-[1-(2-hydroxy-2-methyl-propyl)-1H-pyrazol-3-yl]-2-[6-oxo-4-(2-trifluoromethyl-phenoxy)-6H-pyridazin-1-yl]-propionamide] | 0.099 | – |
| CC(C)(O)Cn1ccc(NC(=O)C(CC2CCCC2)n2ncc(Oc3ccccc3C3CCCCC3)cc2=O)n1 (stereo not shown) [Example 21, 2-[4-(2-Cyclohexyl-phenoxy)-6-oxo-6H-pyridazin-1-yl]-3-cyclopentyl-N-[1-(2-hydroxy-2-methyl-propyl)-1H-pyrazol-3-yl]-propionamide] | 0.873 | – |
| CC(C)(O)Cn1ccc(NC(=O)[C@H](CC2CCCC2)n2ncc(Oc3ccccc3F)cc2=O)n1 [Example 19A, (S)-3-Cyclopentyl-2-[4-(2-fluoro-phenoxy)-6-oxo-6H-pyridazin-1-yl]-N-[1-(2-hydroxy-2-methyl-propyl)-1H-pyrazol-3-yl]-propionamide] | 0.104 | – |
| CC(C)(O)Cn1ccc(NC(=O)[C@H](CC2CCCC2)n2ncc(Oc3ccccc3C#N)cc2=O)n1 [Example 29A, (S)-2-[4-(2-Cyano-phenoxy)-6-oxo-6H-pyridazin-1-yl]-3-cyclopentyl-N-[1-(2-hydroxy-2-methyl-propyl)-1H-pyrazol-3-yl]-propionamide] | 0.159 | – |
| CC(C)(O)Cn1ccc(NC(=O)C(CC2CCCC2)n2ncc(Oc3ccccc3N3CCCCC3)cc2=O)n1 (stereo not shown) [Example 27, 3-Cyclopentyl-N-[1-(2-hydroxy-2-methyl-propyl)-1H-pyrazol-3-yl]-2-[6-oxo-4-(2-piperidin-1-yl-phenoxy)-6H-pyridazin-1-yl]-propionamide] | 2.385 | – |

Next, values leading:

| SC1.5 average (concentration of activator that produced a 50% increase in the activity of GK) [µM] | fold activation @ 30 uM (30 uM test compound) [fold] | Compound |
| --- | --- | --- |
| 0.554 | – | CC(C)CC(C(=O)Nc1ccn(C[C@@H](O)CO)n1)n1ncc(Oc2cccc3[nH]ccc23)cc1=O (stereo partly drawn) [Example 111, 2-[4-(1H-Indol-4-yloxy)-6-oxo-6H-pyridazin-1-yl]-4-methyl-pentanoic acid [1-((R)-2,3-dihydroxy-propyl)-1H-pyrazol-3-yl]-amide] |
| 0.544 | – | CCC(CC)CC(C(=O)Nc1ccn(CCO)n1)n1ncc(Oc2c(F)cccc2F)cc1=O (stereo not shown) [Example 54, 2-[4-(2,6-Difluoro-phenoxy)-6-oxo-6H-pyridazin-1-yl]-4-ethyl-hexanoic acid [1-(2-hydroxy-ethyl)-1H-pyrazol-3-yl]-amide] |
| 15.901 | – | CC(C)(O)Cn1ccc(NC(=O)[C@@H](CC2CCCC2)n2ncc(Oc3cccc(F)c3F)cc2=O)n1 [Example 31B, (R)-3-Cyclopentyl-2-[4-(2,3-difluoro-phenoxy)-6-oxo-6H-pyridazin-1-yl]-N-[1-(2-hydroxy-2-methyl-propyl)-1H-pyrazol-3-yl]-propionamide] |
| 0.042 | – | Cc1ccc(F)c(Oc2cnn(C(CC3CCCC3)C(=O)Nc3ccn(C[C@@H](O)CO)n3)c(=O)c2)c1F (stereo partly drawn) [Example 107, 3-Cyclopentyl-2-[4-(2,6-difluoro-3-methyl-phenoxy)-6-oxo-6H-pyridazin-1-yl]-N-[1-((R)-2,3-dihydroxy-propyl)-1H-pyrazol-3-yl]-propionamide] |
| 0.334 | – | COc1cccc(Oc2cnn(C(CC(C)C)C(=O)Nc3ccn(C[C@@H](O)CO)n3)c(=O)c2)c1Cl (stereo partly drawn) [Example 127, 2-[4-(2-Chloro-3-methoxy-phenoxy)-6-oxo-6H-pyridazin-1-yl]-4-methyl-pentanoic acid [1-((R)-2,3-dihydroxy-propyl)-1H-pyrazol-3-yl]-amide] |
| 0.56 | – | Cc1cc(C)nc(Oc2cnn(C(CC3CCCC3)C(=O)Nc3ccn(C[C@@H](O)CO)n3)c(=O)c2)n1 (stereo partly drawn) [Example 102, 3-Cyclopentyl-N-[1-((R)-2,3-dihydroxy-propyl)-1H-pyrazol-3-yl]-2-[4-(4,6-dimethyl-pyrimidin-2-yloxy)-6-oxo-6H-pyridazin-1-yl]-propionamide] |
| 0.036 | – | COC(=O)c1ccc(NC(=O)C(CC2CCCC2)n2ncc(Oc3ccccc3F)cc2=O)nc1 (stereo not shown) [Example 70, 6-{3-Cyclopentyl-2-[4-(2-fluoro-phenoxy)-6-oxo-6H-pyridazin-1-yl]-propionylamino}-nicotinic acid methyl ester] |
| 0.101 | – | Cc1ccc(F)c(Oc2cnn(C(CC3CCCC3)C(=O)Nc3ccn(C[C@@H](O)CO)n3)c(=O)c2)c1 (stereo partly drawn) [Example 100, 3-Cyclopentyl-N-[1-((R)-2,3-dihydroxy-propyl)-1H-pyrazol-3-yl]-2-[4-(2-fluoro-5-methyl-phenoxy)-6-oxo-6H-pyridazin-1-yl]-propionamide] |
| 3.148 | – | O=C(Nc1ccn(C[C@H](O)CO)n1)[C@@H](CC1CCCC1)n1ncc(Oc2c(F)cccc2F)cc1=O [Example 65B, (R)-3-Cyclopentyl-2-[4-(2,6-difluoro-phenoxy)-6-oxo-6H-pyridazin-1-yl]-N-[1-((S)-2,3-dihydroxy-propyl)-1H-pyrazol-3-yl]-propionamide] |
| 0.731 | – | CC(C)CC(C(=O)Nc1ccn(C[C@@H](O)CO)n1)n1ncc(Oc2ccccc2Cl)cc1=O (stereo partly drawn) [Example 137, 2-[4-(2-Chloro-phenoxy)-6-oxo-6H-pyridazin-1-yl]-4-methyl-pentanoic acid [1-((R)-2,3-dihydroxy-propyl)-1H-pyrazol-3-yl]-amide] |
| 0.034 | – | CC(C)(O)Cn1ccc(NC(=O)[C@H](CC2CCCC2)n2ncc(Oc3c(F)cccc3F)cc2=O)n1 [Example 36A, (S)-3-Cyclopentyl-2-[4-(2,6-difluoro-phenoxy)-6-oxo-6H-pyridazin-1-yl]-N-[1-(2-hydroxy-2-methyl-propyl)-1H-pyrazol-3-yl]-propionamide] |
| 0.468 | – | O=C(Nc1ccn(CCO)n1)C(CC1CCC1)n1ncc(Oc2c(F)cccc2F)cc1=O (stereo not shown) [Example 55, 3-Cyclobutyl-2-[4-(2,6-difluoro-phenoxy)-6-oxo-6H-pyridazin-1-yl]-N-[1-(2-hydroxy-ethyl)-1H-pyrazol-3-yl]-propionamide] |
| 0.049 | – | O=C(Nc1ccn(C[C@H](O)CO)n1)[C@H](CC1CCCC1)n1ncc(Oc2c(F)cccc2F)cc1=O [Example 65A, (S)-3-Cyclopentyl-2-[4-(2,6-difluoro-phenoxy)-6-oxo-6H-pyridazin-1-yl]-N-[1-((S)-2,3-dihydroxy-propyl)-1H-pyrazol-3-yl]-propionamide] |
| 0.102 | – | O=C(Nc1ccn(C[C@H](O)CO)n1)C(CC1CCCC1)n1ncc(Oc2c(F)cccc2F)cc1=O (stereo partly drawn) [Example 65, 3-Cyclopentyl-2-[4-(2,6-difluoro-phenoxy)-6-oxo-6H-pyridazin-1-yl]-N-[1-((S)-2,3-dihydroxy-propyl)-1H-pyrazol-3-yl]-propionamide] |
